Results taken from ChEMBL document CHEMBL5727531, “TrkA kinase inhibitors, compositions and methods thereof” (2020).

Target: High affinity nerve growth factor receptor (Homo sapiens, UniProt P04629)
Assay: Biological Assay: TrkA functional activity was measured using a DiscoverX PathHunter assay. In this assay, U2OS cells express the human TrkA receptor as a fusion with the weakly complementing fragment of B-galactosidase, which DiscoverX calls Prolink (PK); additionally, Shc1 is fused with a larger fragment, which is called Enzyme Acceptor (EA). Activation of the TrkA receptor, upon NGF addition, results in the kinase domain being phosphorylated, resulting in subsequent recruitment of Shc1-EA protein. That recruitment results in an active B-galactosidase enzyme that is detected by addition of a chemiluminescent substrate. The human p75NTR protein was also expressed as a co-receptor for NGF.

Sequence of High affinity nerve growth factor receptor (P04629 whole entry, the tested form may be a part): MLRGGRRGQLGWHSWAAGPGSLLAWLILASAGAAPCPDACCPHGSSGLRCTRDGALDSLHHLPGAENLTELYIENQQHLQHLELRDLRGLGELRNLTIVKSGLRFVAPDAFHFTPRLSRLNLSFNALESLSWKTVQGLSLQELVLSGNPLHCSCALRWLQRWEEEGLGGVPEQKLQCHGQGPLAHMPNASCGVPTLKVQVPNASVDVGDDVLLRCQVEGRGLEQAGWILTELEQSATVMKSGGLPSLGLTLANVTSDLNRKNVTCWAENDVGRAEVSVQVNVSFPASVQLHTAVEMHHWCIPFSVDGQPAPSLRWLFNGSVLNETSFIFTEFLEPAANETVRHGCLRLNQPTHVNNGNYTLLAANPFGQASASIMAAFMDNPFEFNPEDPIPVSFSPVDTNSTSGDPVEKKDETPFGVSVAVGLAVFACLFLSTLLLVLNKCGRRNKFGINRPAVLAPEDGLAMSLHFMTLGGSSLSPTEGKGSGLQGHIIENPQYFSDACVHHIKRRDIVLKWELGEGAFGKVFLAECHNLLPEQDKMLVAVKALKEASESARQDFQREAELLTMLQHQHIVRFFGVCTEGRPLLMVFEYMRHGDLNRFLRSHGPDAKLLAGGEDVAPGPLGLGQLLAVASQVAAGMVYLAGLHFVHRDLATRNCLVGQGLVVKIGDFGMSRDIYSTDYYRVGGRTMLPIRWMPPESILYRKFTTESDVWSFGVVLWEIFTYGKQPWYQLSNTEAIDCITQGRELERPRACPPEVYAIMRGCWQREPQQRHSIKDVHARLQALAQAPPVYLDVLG

SMILES: Cn1ccc(-c2cc(C(=O)Nc3c(-c4ccccc4)ccc4c(C(C)(C)O)ncn34)c(F)cc2C(F)(F)F)n1
- IC50: 0.05 µM
